Results: patent publication US6342502B1, “Thieno[2,3-d]pyrimidine diones and their use in the treatment of reversible obstructive airways diseases” (AstraZeneca AB, priority 1997, dated 2002)

Row | SMILES | melting point [°C]
1 | CC(C)Cn1c(=O)[nH]c(=O)c2cc(Cc3cccc4ccccc34)sc21 [Example 3, 1-(2-Methylpropyl)-6-(1-naphthalenylmethyl)thieno[2,3-d]pyrimidine-2,4(1H,3H)-dione] | 189 to 190
2 | CC(C)Cn1c(=O)n(C)c(=O)c2c(C(=O)NCCO)c(Cc3cccc4ccccc34)sc21 [Example 16, 1,2,3,4-Tetrahydro-N-(2-hydroxyethyl)-3-methyl-1-(2-methylpropyl)-6-(1-naphthalenylmethyl)-2,4-dioxothieno[2,3-d]pyrimidine-5-carboxamide] | 193 to 194
3 | CC(C)Cn1c(=O)n(C)c(=O)c2c(NC(=O)NCCO)c(Cc3cccc4ccccc34)sc21 [Example 48] | 227 to 228
4 | CC(C)Cn1c(=O)n(C)c(=O)c2c(SCCCC(=O)O)c(Cc3cccc4ccccc34)sc21 [Example 8, 4-[(1,2,3,4-Tetrahydro-3-methyl-1-(2-methylpropyl)-6-(1-naphthalenylmethyl)-2,4-dioxothieno[2,3-d]pyrimidin-5-yl)thio]butanoic acid] | 172 to 173
5 | CC(C)Cn1c(=O)n(C)c(=O)c2c(Sc3cccc[n+]3[O-])c(Cc3cccc4ccccc34)sc21 [Example 38, 2-{[1,2,3,4-Tetrahydro-3-methyl-1-(2-methylpropyl)-6-(1-naphthalenylmethyl)-2,4-dioxothieno[2,3-d]pyrimidin-5-yl]thio}pyridine N-oxide] | 228 to 229
6 | CC(C)Cn1c(=O)n(C)c(=O)c2c(SCCCO)c(C(O)c3cccc4ccccc34)sc21 (racemic) [Example 83, (±) 6-(1-Hydroxy-1-[1-naphthalenyl]methyl)-5-([3-hydroxypropyl]thio)-3-methyl-1-(2-methylpropyl)thieno[2,3-d]pyrimidine-2,4(1H,3H)-dione] | 100 to 105
7 | CC(=O)Nc1cccc(C(=O)Nc2ccc(Cc3cc4c(=O)n(C)c(=O)n(CC(C)C)c4s3)cc2)c1 [Example 94] | 230
8 | COC(=O)Nc1cccc(Sc2c(Cc3cccc4ccccc34)sc3c2c(=O)n(C)c(=O)n3CC(C)C)c1 [Example 33] | 167 to 168
9 | CC(C)Cn1c(=O)n(C)c(=O)c2c(C(=O)N(C)C)c(Cc3ccccc3)sc21 [Example 89, 1,2,3,4-Tetrahydro-3,N,N-trimethyl-1-(2-methylpropyl)-6-phenylmethy-2,4-dioxothieno[2,3-d]pyrimidine-5-carboxamide] | 144 to 146
10 | CC(C)Cn1c(=O)n(C)c(=O)c2cc(Cc3cccc(F)c3)sc21 [Example 52, 6-[(3-Fluorophenyl)methyl]-3-methyl-1-(2-methylpropyl)thieno[2,3-d]pyrimidine-2,4-(1H, 3H)-dione] | 76 to 78
11 | CC(C)Cn1c(=O)n(C)c(=O)c2c(Sc3ccc(N)cc3)c(Cc3cccc4ccccc34)sc21 [Example 36, 5-[(4-Aminophenyl)thio]-3-methyl-1-(2-methylpropyl)-6-(1-naphthalenylmethyl)thieno[2,3-d]pyrimidine-2,4-(1H, 3H)-dione] | 177 to 178
12 | COC(=O)CCCS(=O)(=O)c1c(Cc2cccc3ccccc23)sc2c1c(=O)n(C)c(=O)n2CC(C)C [Example 10, Methyl 4-[(1,2,3,4-tetrahydro-3-methyl-1-(2-methylpropyl)-6-(1-naphthalenylmethyl)-2,4-dioxothieno[2,3-d]pyrimidin-5-yl)sulfonyl]butanoate] | 122 to 124
13 | CC(C)Cn1c(=O)n(C)c(=O)c2cc(C3OC(=N)c4ccccc43)sc21 (centres unmarked) [Example 81, 6-(3-Imino-1,3-dihydro-benzo[c]furan-1-yl)-3-methyl-1-(2-methylpropyl)thieno[2,3-d]pyrimidine-2,4(1H, 3H)-dione] | 152
14 | CC(=O)Nc1cccc(Sc2c(Cc3cccc4ccccc34)sc3c2c(=O)n(C)c(=O)n3CC(C)C)c1 [Example 34, 5-[(3-Acetamidophenyl)thio]-3-methyl-1-(2-methylpropyl)-6-(1-naphthalenylmethyl)thieno[2,3-d]pyrimidine-2,4-(1H, 3H)-dione] | 173 to 174
